Assay results from US7365071B2, “Heterocyclic compounds, preparation process and intermediates, and use as medicaments, in particular as β-lactamase inhibitors and antibacterials” (priority 2002, dated 2008).
pIC50: −log10 of the molar value. Structures can show the parent of a compound that is named as a salt. Where two headings read alike, the source gives them in different places.

Experiments:
β-lactamase Tem-1 = target: T1, β-lactamase Tem-1 (Escherichia coli, UniProt P62593); assay: Inhibitory activity for β-lactamases (nitrocefin hydrolysis); assay type: biochemical, E. coli 250HT21; conditions: for IC50: after 5 min of preincubation with the enzyme, 100 μM nitrocefin, 50 mM sodium phosphate buffer pH 7.0, 37° C., read-out: IC50 nM/TEM1
T1 construct: The β-lactamases are isolated from bacterial strains resistant to penicillins and to cephalosporins; endogenous in cells; host or cells: E. coli 250HT21, soluble fraction of French-press lysate
T1 sequence (P62593 24-286 limits assumed): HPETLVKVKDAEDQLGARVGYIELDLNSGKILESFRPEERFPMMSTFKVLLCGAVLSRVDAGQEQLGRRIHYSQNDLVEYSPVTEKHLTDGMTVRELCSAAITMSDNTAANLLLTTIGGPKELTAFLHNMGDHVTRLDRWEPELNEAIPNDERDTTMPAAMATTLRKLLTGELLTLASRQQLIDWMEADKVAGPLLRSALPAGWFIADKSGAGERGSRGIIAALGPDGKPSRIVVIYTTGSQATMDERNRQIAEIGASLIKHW
Description: (§1) II/Inhibitory Activity for β-Lactamases
(§2) A. Preparation of the β-Lactamases Tem-1 and P99
(§3) The β-lactamases are isolated from bacterial strains resistant to penicillins and to cephalosporins (Tem1 and P99 are produced respectively by E. coli 250HT21 and E. Cloacae 293HT6).
(§4) The bacteria are cultured in 37 g/l brain-heart broth (DIFCO) at 37° C. They are harvested in the exponential phase, cooled and centrifuged. The bacterial pellets are taken up in 50 mM sodium phosphate buffer, pH 7.0, and are again centrifuged. The bacteria are taken up in two volumes of the same buffer and lyzed using a French press maintained at 4° C. After centrifuging for 1 h at 100 000 g at 4° C., the supernatants comprising the soluble fraction of the bacterial extracts are recovered and frozen at −80° C.
(§5) B. Determination of the β-Lactamase Activity
(§6) The method uses nitrocefin (Oxoid), a chromogenic cephalosporin, the product of hydrolysis by β-lactamases of which is red and absorbed at 485 nm, as substrate. The β-lactamase activity is determined kinetically by the measurement, on a plate spectrophotometer (Spectra Max Plus from Molecular Devices), of the variation in absorbance at 485 nm resulting from the hydrolysis of the substrate. The experiments are carried out at 37° C. The amount of enzyme was standardized and the measurements are carried out at the initial rate.
(§7) C. Determination of the Inhibitory Activity for β-Lactamases
(§8) Two measurements are carried out, without preincubation and with preincubation of the enzyme and of the inhibitor (5 min), in order to test the irreversibility of the reaction. The products are tested at 6 or 8 concentrations in duplicate. The reaction mixture comprises 100 μM nitrocefin and 50 mM sodium phosphate buffer, pH 7.0.
(§9) D. Calculations of the IC50 Values
(§10) The rates of hydrolysis are measured with and without inhibitor. The concentration of inhibitor which inhibits by 50% the reaction for the hydrolysis of nitrocefin by the enzyme is determined (IC50). The processing of the data is carried out using GraFit software (Erathycus Software).

β-lactamase P99 = target: T2, β-lactamase P99 (Enterobacter cloacae, UniProt P05364); assay: as above; assay type: biochemical; conditions: for IC50: after 5 min of preincubation with the enzyme, 100 μM nitrocefin, 50 mM sodium phosphate buffer pH 7.0, 37° C., read-out: IC50 nM/P99
T2 construct: The β-lactamases are isolated from bacterial strains resistant to penicillins and to cephalosporins; endogenous in cells; host or cells: Enterobacter cloacae 293HT6, soluble fraction of French-press lysate
T2 sequence (P05364 21-381): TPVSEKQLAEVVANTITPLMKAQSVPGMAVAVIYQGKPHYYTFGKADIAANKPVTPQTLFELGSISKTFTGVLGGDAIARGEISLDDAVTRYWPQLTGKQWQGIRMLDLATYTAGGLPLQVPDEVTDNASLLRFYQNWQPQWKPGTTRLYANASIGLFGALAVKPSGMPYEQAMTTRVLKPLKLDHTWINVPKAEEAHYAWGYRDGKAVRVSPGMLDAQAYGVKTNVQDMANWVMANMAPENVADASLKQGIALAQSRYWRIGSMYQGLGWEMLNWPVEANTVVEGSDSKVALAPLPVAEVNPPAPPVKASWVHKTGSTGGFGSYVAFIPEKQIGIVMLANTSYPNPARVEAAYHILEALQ
Description: as §1, §2, §3, §4, §5, §6, §7, §8, §9, §10

Row | SMILES | pIC50 (β-lactamase Tem-1) | pIC50 (β-lactamase P99) | IC50 (β-lactamase Tem-1) [nM] | IC50 (β-lactamase P99) [nM]
1 | CS(=O)(=O)N1c2ccccc2C2CN1C(=O)N2OCC(=O)O (stereo not shown) [Example 5, N-(1-Methylethyl)-2-propanaminium salt of [[1,5-dihydro-1-(methylsulfonyl)-3-oxo-2,5-methano-2H-1,2,4-benzotriazepin-4(3H)-yl]oxy]acetic acid] | 3.24 | 3.34 | – | –
2 | O=C(O)CON1C(=O)N2CC1c1ccccc1N2C(=O)NC(=O)c1ccccc1 (stereo not shown) [Example 7, N-(1-Methylethyl)-2-propanaminium salt of [[1-[(benzoylamino)carbonyl]-1,5-dihydro-3-oxo-2,5-methano-2H-1,2,4-benzotriazepin-4(3H)-yl]oxy]acetic acid] | 3.96 | 4.20 | – | –
3 | O=C(O)CON1C(=O)N2CC1c1ccccc1N2C(=O)NS(=O)(=O)c1ccccc1 (stereo not shown) [Example 9, Bis[N-(1-methylethyl)-2-propanaminium] salt of [[1,5-dihydro-3-oxo-1-[[(phenylsulfonyl)amino]carbonyl]-2,5-methano-2H-1,2,4-benzotriazepin-4(3H)-yl]oxy]acetic acid] | 3.80 | 3.74 | – | –
4 | O=C(O)CON1C(=O)N2CC1c1ccccc1N2 (stereo not shown) [Example 11, N-(1-Methylethyl)-2-propanaminium salt of [(1,5-dihydro-3-oxo-2,5-methano-2H-1,2,4-benzotriazepin-4(3H)-yl)oxy]acetate acid] | 4.85 | 4.82 | – | –
5 | C=CCON1C(=O)N2CC1c1ccccc1N2Cc1cccnc1 (stereo not shown) [Example 14, 4,5-Dihydro-4-(2-propenyloxy)-1-(3-pyridinylmethyl)-2,5-methano-2H-1,2,4-benzotriazepin-3(1H)-one] | – | – | 26000 | 17000
6 | C=CCON1C(=O)N2CC1c1ccccc1N2C(=O)NS(=O)(=O)c1ccccc1 (stereo not shown) [Example 15, 4,5-Dihydro-3-oxo-N-(phenylsulfonyl)-4-(2-propenyloxy)-2,5-methano-2H-1,2,4-benzotriazepin-1(3H)-carboxamide] | – | – | 450000 | 110000
7 | CCOC(=O)CN1c2ccccc2C2CN1C(=O)N2OS(=O)(=O)O (stereo not shown) [Example 27, Sodium Salt of Ethyl 4,5-dihydro-3-oxo-4-(sulfoxy)-2,5-methano-2-H-1,2,4-benzotriazepine-1(3H)-acetate] | – | – | 7500 | 530
8 | CN1c2ccccc2C2CN1C(=O)N2OS(=O)(=O)O (stereo not shown) [Example 28, Sodium salt of 4,5-dihydro-1-methyl-4-(sulfooxy)-2,5-methano-2H-1,2,4-benzotriazepin-3(1H)-one] | – | – | 12000 | 37000
